Where only a bound is given, the exact number is not on record here.

For the molecule `COc1cc(N)c(Cl)cc1C(=O)N[C@@H]1CCN(CCCC(=O)N2CCCC2)C[C@H]1O` (relative stereo), the melting point – broadly, the temperature of the solid-liquid transition – came out at 175 °C. In the case of `Oc1ccc(O[C@@H]2CCNC[C@H]2O)cc1` (relative stereo) it was 176 to 178 °C; in that of `CC(Oc1ccc2c(=O)c(-c3ccccc3)coc2c1)C(=O)O` (stereo not drawn), 201 to 202 °C. With `COC(=O)c1ccccc1-c1cc(-c2ccc(Cl)cc2Cl)no1`, the melting point lay in the range of 94 to 96 °C. In the case of `COc1ccnc(CSc2nc3cscc3n2COC(C)=O)c1` it was 111 to 113 °C; in that of `CS(=O)(=O)Nc1ccc([N+](=O)[O-])cc1OC1CCCCC1`, 136 to 137 °C; in that of `CCOC(=O)Cn1cc(Cl)cnc1=O`, 175 to 177 °C. In the case of `O=C(O)COc1coc2ccccc2c1=O` it was 154 to 164 °C; in that of `CC(=O)NCCn1c(O)nc2ccc(Cl)nc21`, 200 to 220 °C.

`CCCCCCCCCCCCCCCCCCNC(=O)OCC(CNS(=O)(=O)CCCCl)NC(C)=O` (stereo not drawn) had a melting point of 110 to 112 °C.

`COc1ccc(OCC(C)Oc2ccc(OC)cc2)cc1` (stereo not drawn) displayed a melting point of 84 to 84.5 °C. In the case of `C=Cc1ccc(NC(=O)OCC2(C)COC(=O)OC2)cc1` it was 120 to 121 °C; in that of `CCN(CC)CCNc1nc2ccccc2n(-c2ccc(Cl)cc2)c1=O`, 96 to 98 °C; in that of `CC(=O)OC1CSC(Oc2ccc(-c3cccnc3)nc2Cl)C(OC(C)=O)C1OC(C)=O` (stereo not drawn), 155 °C. The figure for `O=C(NCc1ccc(Cl)cc1)c1cn(CCCN2CCCCC2)c2ccc(C#CCO)cc2c1=O` is 160 to 163 °C. As for `Cc1cc(C(C)(C)C)c(O)c2c1C1CCCCC1C2=O` (stereo not drawn), the melting point lay within 77 to 78 °C. As to `O=C(O)c1cc(C#Cc2ccccc2)cc2c1NCCC2`, the melting point was 187 to 188 °C. As to `CCCCCCCCCCCCCCOC(=O)c1cc(C(=O)OCCCCCCCCCCCCCC)cc(N(CC(=O)O)CC(=O)O)c1`, the melting point lay in the range of 84 to 87 °C. For `Cn1cc(C(=O)O)c(=O)c2cc(F)c(N3CCNCC3)cc21`, the melting point amounted to 310 °C. In the case of `C[C@H]1COc2c(C#N)cccc2C(=O)N(C[C@@H](CCN)c2ccc(Cl)c(Cl)c2)C1` it was 82 to 128 °C; in that of `Cc1ccc(-c2ccc(N3CCCN(c4ccc(-c5ccc(C)cc5)cn4)CC3)nc2)cc1`, 245 to 247 °C; in that of `CCOC(=O)C(=O)c1cn(CCNC(=O)OC(C)(C)C)c2ccccc12`, 114 to 115 °C. The figure for `Cn1nc(-c2cnc3[nH]cc(C(=O)NC4CCCCC4)c3n2)c2ccc(Cl)cc21` is 321 to 323 °C. The figure for `CC(=O)CN1C(=O)C(NC(=O)Nc2cccc(C)c2)N=C(C)c2cccc(C)c21` (stereo not drawn) is 126 to 128 °C. The molecule `O=C(O)Cn1c(=O)n(S(=O)(=O)c2ccccc2)c(=O)c2ccc(Cl)cc21` yielded a melting point of 212 to 214 °C. The figure for `Nc1nnc(Cc2cccc(C(F)(F)F)c2)s1` is 174 to 176 °C. `COc1cc(C(=O)O)ccc1Cc1cn(C(C)C(=O)N(C)C)c2ccc(C(=O)NCC3CCCC3)cc12` (stereo not drawn) came in with a melting point of 146 to 147 °C. In the case of `Cc1c(C(=O)Nc2ccc(OCC(C)(C)C)c(C#N)c2)cnn1CCO` it was 98 to 100 °C; in that of `NCC1COc2cc(F)cc(-c3cccc(Cl)c3)c2N1` (stereo not drawn), 76 °C. In the case of `CN(CC(=O)C(Cc1c[nH]c2ccccc12)NC(=O)c1ccccc1)C(=O)N1CCCC1C(=O)O` (stereo not drawn) it was 102 to 128 °C; in that of `CNS(=O)(=O)c1cscc1CO`, 118 to 119 °C. With `CCc1ccc(Nc2c(-c3nnc(NCCO)o3)ccc(F)c2F)c(F)c1`, the melting point lay within 100 to 103 °C. `CCN1CCCC1CNC(=O)c1cc(N(C#N)S(C)(=O)=O)ccc1OC` (stereo not drawn) showed a melting point of 50 to 54 °C. In the case of `CC(=O)On1c(=O)c(=O)[nH]c2cc(C(F)(F)F)c(C#N)cc21` it was 230 °C. The molecule `OCc1cn2c(n1)CN=C(c1ccccn1)c1cc(Br)ccc1-2` yielded a melting point of 176 to 178 °C.

Take `O=C(O)[C@H]1C[C@H](CCc2ccccc2)Oc2ccc(F)cc21` (relative stereo): the melting point was 105 to 108 °C. The figure for `CCOC(=O)Cc1ccccc1N(C(=O)CNC(=O)Nc1cccc(C)c1)c1ccccc1` is 120 °C.

The molecule `O=C1NC(Cc2ccc(OCc3ccccc3)cn2)C(=O)NC1Cc1ccccc1` (stereo not drawn) came in with a melting point of 215 to 218 °C. Regarding `COc1c(C)c2c(c(O)c1C/C=C(\C)CCC(=O)N1C(=O)OC[C@@H]1Cc1ccccc1)C(=O)OC2`, the melting point lay in the range of 112 to 113 °C. The figure for `CC1(C)OCCc2c1n(Cc1ccccc1)c1ccccc21` is 132 to 134 °C. Molecule `CN1Cc2c(C#CC3CC3)ncn2-c2cccc(Cl)c2C1=O` returned a melting point of 177 to 178 °C. Take `COc1cc(N(C)C)nc(NC(=O)NS(=O)(=O)c2ccccc2Cl)n1`: the melting point was 224 to 226 °C.

Take `FC(F)(F)c1ccc(Oc2ccc(OCc3ccccc3)cc2)c(Cl)c1`: the melting point was 63 to 66 °C. In the case of `COc1cccc(OC)c1C(=O)Nc1nnc(-c2ccc(O)cc2)s1` it was greater than 260 °C. Regarding `COc1ccc(CNc2cnn[nH]2)cc1OC1CCCC1`, the melting point lay in the range of 113 to 114 °C.

`CC(C)(C)SCc1c(-c2ccc(S(C)(=O)=O)cc2)cnn(-c2ccc(F)cc2)c1=O` had a melting point of 50 to 70 °C. The figure for `O=CN1C(=O)[C@H]2N=C(Cc3ccccc3)O[C@H]21` is 90 to 92 °C; for `CC(C)(C)C1=C(c2cc3cc(O)ccc3s2)OCC1(C)C` it is 196 °C; for `COc1ccc2c(c1)c(-c1cc3nccnc3[nH]1)cn2CCO` it is 270 to 273 °C.

The molecule `C#CCC1CCC(=O)C(C(=O)c2ccc(S(C)(=O)=O)cc2[N+](=O)[O-])C1=O` (stereo not drawn) came in with a melting point of 65 to 70 °C. The figure for `Cc1cccc2cc3c(=O)n(CCOC(=O)NCCN(C)C)cc(C(=O)NCCN(C)C)c3nc12` is 75 to 76 °C.

`COC(C=CC=Cc1ccc(OC)cc1)=CC(=O)O`: the melting point was determined as 187 °C. The figure for `O=C(O)c1cn(Cc2ccc(OCc3csc(-c4ccccc4)n3)cc2)nc1-c1cccs1` is 187 to 188 °C. The figure for `c1ccc(SCCn2c(-c3ccccc3)nc3cc(CN4CCN(C(c5ccccc5)c5ccccc5)CC4)ccc32)cc1` is 118 to 125 °C. In the case of `O=C(O)c1ccc2nc3c(c(=O)n2c1)CCC3=Cc1cccc(O)c1` it was greater than 320 °C; in that of `CCSc1cc(=O)c2c(O)cc(O)c([C@H]3CCN(C)C[C@H]3O)c2o1` (relative stereo), 104 °C. For `N#Cc1cc(C2=Nc3ccc(-n4cccc4)cc3NC(=O)C2)ccn1`, the melting point was in the range of 243 to 244 °C.

`C(=C(c1ccccc1)c1ccccc1)C1CCN(CCCCCCc2cncnc2)CC1` yielded a melting point of 88 to 90 °C. Take `CCCCNc1ncc2ccc(=O)n(C)c2n1`: the melting point was in the range of 146 to 147 °C. As for `O=C(O)c1cccnc1NCc1ccc(Cl)cc1`, the melting point was 240 to 242 °C. In the case of `O=C1COc2ccc(C3=Cc4ccccc4SC3c3ccccc3)cc2N1` (stereo not drawn) it was 226 to 227 °C. The figure for `COCCOC(=O)c1c(S(C)(=O)=O)ccc(C(=O)O)c1C` is 90 to 93 °C. The figure for `CC#CCOc1ccc(S(=O)(=O)NC(COCCBr)C(=O)OC)cc1` (stereo not drawn) is 45 to 46 °C; for `CC(C)(C)c1ccc(-c2nn(-c3ccc(F)cc3F)c3c2C2CCC3C2)cc1` (stereo not drawn) it is 130 to 132 °C. For the molecule `CC(C)(C)c1cc(C=O)c(O)cc1Cl`, the melting point fell in the range of 38 to 39 °C. In the case of `O=C(O)c1cc(=O)c(Cl)c(-c2ccccc2)o1` it was 216 to 218 °C; in that of `CNC(=NCCSCc1cc(CN2CCCCC2)ccn1)NC#N`, 79 to 81 °C.

In the case of `CCCCc1nc(C(O)C(C)(C)C)c(C(N)=O)n1Cc1ccc(-c2ccccc2C(=O)O)cc1` (stereo not drawn), the melting point was in the range of 150 to 154 °C.

Regarding `CCN(CC)CC(=O)N1c2ccccc2N(C)S(=O)(=O)c2ccccc21`, the melting point lay within 161 to 162 °C. In the case of `Cc1ncc(C#N)c(Nc2cccc3[nH]ccc23)c1-c1cc2ccccc2o1` it was 192 to 193 °C; in that of `Nc1c(Br)cc(Br)cc1S(N)(=O)=O`, 165 to 169 °C; in that of `CC(C)(C)c1ccc(Nc2nnc(Cc3ccc(O)nc3)c3ccccc23)cc1`, 134 to 135 °C. On to `CCOC(=O)c1ccccc1-n1cnc2c(C)c(C(=O)OCC)c(C)cc2c1=O`, for which the melting point is 116 to 117 °C. The figure for `O=C(O)c1cccc(CO[N+](=O)[O-])c1` is 123 to 125 °C; for `Cc1ccc(C(=O)NC(NC(=S)Nc2cccnc2)C(F)(F)F)cc1` (stereo not drawn) it is 185 to 186 °C; for `Ic1ccc(-c2cc[nH]c2)cc1` it is 164 to 165 °C. The figure for `CC(C)c1nccc2c(CNC(=O)C(Cl)Cl)cccc12` is 151 °C. In the case of `Cc1nn(C)c2ncc3c(c12)CC(C)CC3` (stereo not drawn) it was 121 to 123 °C; in that of `CS(=O)COC(=O)c1oc(-c2ccccc2)cc(=O)c1Br` (stereo not drawn), 159 °C. Molecule `CCOC(=O)C(=C(c1ccc(F)cc1)c1ccc(F)cc1)c1nnn(C(C)(C)C)n1` returned a melting point of 143 to 144 °C. The figure for `CN(C)C(=O)Sc1ccc(C(=O)c2ccccc2C#N)cc1` is 112 °C; for `CCC1(NC(=O)c2cc(OC)ccn2)CCCCn2c1nc(-c1ccncn1)cc2=O` (racemic) it is 200 to 202 °C; for `COc1ccccc1NC1CN(C(c2ccccc2)c2ccccc2)C1` it is 75 to 77 °C. In the case of `CCCCCCCc1noc(-c2ncn3c2CN(C)C(=O)c2c(Cl)cccc2-3)n1` it was 108 to 110 °C; in that of `Cc1ccc(CN2CCN3C(=O)OC(c4ccccc4)(c4ccccc4)C3C2)cc1` (stereo not drawn), 154 to 155 °C; in that of `O=C(NC/C=C/c1ccccc1)c1ccccc1F`, 68 °C. The figure for `O=c1[nH]c2nc(Cl)nc(Cl)c2s1` is 191 to 192 °C; for `COC=C(C(=O)OC)c1csc2ccc(C=Cc3ccccc3)cc12` it is 180 to 181 °C.

For the origin of these results see a melting point compilation (Tetko et al.; mined from patent text by program, amines drawn as free bases though some values may be those of a salt).
